From patent US20120276634A1, “SOMATIC EMBRYOGENESIS AND EMBRYO HARVESTING AND METHOD AND APPARATUS FOR PREPARING PLANT EMBRYOS FOR PLANT PRODUCTION” (ArborGen Inc., priority 2005, published 2012) come the findings set out here.

Assay [1] relates to loblolly pine embryogenic cell lines (J and K). The assay can be described thus: Effect of brassinolide in post cryostorage recovery medium on embryo production and embryo production potential. It is filed as cell-based. The following applies: 0.1 μM in high casein Mi3. The protocol: Five J cell lines and five K lines were tested. For each cell line, 4 vials (2 post-cryo recovery media×2 replications) were retrieved from cryostorage. Recovered tissue from each vial was transferred to their respective fresh medium at 2 week intervals using a raft transfer method. Weight data was recorded for tissue derived from each vial at the 6th week after cryo-retrieval. At the 6th week, tissues from both reps of each treatment were pooled and maintained on their respective maintenance medium using a tissue dispersion method: 200 mg per sample in 1 ml liquid Mi3 medium dispersed by agitation and poured onto each culture plate. A total of 800 mg of tissue from each cell line×post-cryo media combination were plated on embryo development medium (4 reps of 200 mg/plate) to test embryo production capacity. Total tissue weight at each subculture was recorded to calculate the potential of each treatment for tissue bulk up and embryo production. Harvestable somatic embryos from each plate were recorded at 9 weeks of incubation on MSG embryo development medium (Tables 1 and 2). Embryo production data was analyzed separately for the J and K cell lines using PROCGLM procedure of SAS. Embryo production potential for each treatment was calculated by multiplying embryo production data by the total potential tissue produced in each cell line and treatment. The effect of brassinolide in the improved Mi3 bulk up medium on subsequent embryo production was tested. […] Since cell line×media treatment interaction was highly significant, data from each line was analyzed separately for each treatment.

Assay [2] shares this test system. In words: Effect of brassinolide in post cryostorage recovery medium on tissue production. The format is cell-based. The following applies: 0.1 μM in high casein Mi3. From the text:
This experiment addresses whether brassinolide in the post-cryogenic storage bulk up medium has a positive effect on tissue recovery and growth enabling faster tissue multiplication and bulk up; and whether there is a cell-line-by-treatment (with or without brassinolide) interaction that can be exploited to enable genotype screening to optimize the best combination for each cell line in terms of both tissue growth and subsequent somatic embryo production. Two post-cryostrorage recovery (bulk up) media treatments were tested: Treatment #1: Mi3 medium (Tables 1 and 2) with high (2.0 g/liter) casein (the improved medium) Treatment #2: The same high casein Mi3 with addition of 0.1 μM Brassinolide Five J cell lines and five K lines were tested. For each cell line, 4 vials (2 post-cryo recovery media×2 replications) were retrieved from cryostorage. Recovered tissue from each vial was transferred to their respective fresh medium at 2 week intervals using a raft transfer method. Weight data was recorded for tissue derived from each vial at the 6th week after cryo-retrieval. At the 6th week, tissues from both reps of each treatment were pooled and maintained on their respective maintenance medium using a tissue dispersion method: 200 mg per sample in 1 ml liquid Mi3 medium dispersed by agitation and poured onto each culture plate. A total of 800 mg of tissue from each cell line×post-cryo media combination were plated on embryo development medium (4 reps of 200 mg/plate) to test embryo production capacity. Total tissue weight at each subculture was recorded to calculate the potential of each treatment for tissue bulk up and embryo production. Harvestable somatic embryos from each plate were recorded at 9 weeks of incubation on MSG embryo development medium (Tables 1 and 2). Embryo production data was analyzed separately for the J and K cell lines using PROCGLM procedure of SAS. Embryo production potential for each treatment was calculated by multiplying embryo production data by the total potential tissue produced in each cell line and treatment.

Take `CC(C)[C@H](C)[C@@H](O)[C@H](O)[C@@H](C)[C@H]1CC[C@H]2[C@@H]3COC(=O)[C@H]4C[C@H](O)[C@H](O)C[C@]4(C)[C@H]3CC[C@]12C` [brassinolide, Brassinolide]: the “embryo production potential compared to the improved Mi3 without brassinolide” value was determined as 149% in assay [1] (J cell lines) and 136% in assay [1] (K cell lines). The “embryo production potential, higher compared to the control” value in assay [1] (both J and K lines) is above 35%. Also, the figures for the “amount of tissue compared to the improved medium without brassinolide” value in assay [2] (J lines) and in assay [2] (K lines) were 127% and 191%, respectively. In assay [2] (all 10 cell lines), the tissue production result is reported as “produced highest amount of tissue”. Also, in assay [2] (slow-recovering cell lines K10, K11 and J4), the increase in growth entry was “two to three-fold”.
